Patent publication US20260345584A1, “METHODS AND PHARMACEUTICAL COMPOSITIONS FOR TREATING CHEMOTHERAPY-INDUCED PERIPHERAL NEUROPATHY WITH EG5 INHIBITORS” (UNIVERSITY OF MIAMI, priority 2023, published 2026)

Experiments:
nox1 = assay: Nox1 immunofluorescence: subcellular translocation in keratinocytes; type: in vivo, zebrafish; settings: EMD534085 alone, 96 hr
Description: The stock solution was divided into 20-30 μl aliquots and stored at −20 °C until use (maximal 6 months). Immediately prior to use, paclitaxel was diluted in Ringer's solution and added to dechorionated larval zebrafish. The larval fish were placed individually or in small groups into wells of a 12-well plate containing the treatment solutions. The control group was 0.05% DMSO. Plates were incubated at 28.5 °C and protected from light. Treatment lengths are indicated in the Drawings, Description of the Drawings, and Examples where appropriate. […] EMD534085, Eg5 inhibitor (MedChemExpress, Cat. No. HY-15000) was diluted in 100% DMSO to make a 10 mM stock solution and stored at −20 °C. […] The solutions were exchanged every 48 hr. […]
Measurements were determined by measuring fluorescence intensity in Fiji using single slice and single channel modes. First, a line using the line tool was placed along the plasma membrane that was clearly distinguishable from the cytoplasm due to increased fluorescence compared with the cytoplasm in all treatment groups. The measurement tool was subsequently selected to measure the mean fluorescence intensity. […] To determine the mean cytoplasmic fluorescence intensity, nuclei were first overlaid with Nox1 fluorescence to ensure the exclusion of nuclear measurements. […] The fluorescence data was exported to Excel and the ratios calculated.

skin gene expression = assay: Human skin RNAseq of paclitaxel-treated CIPN patients; type: in vivo
Description: Neurological history, examination, and QLQ-CIPN20 quality of life questionnaire, which has been validated to detect the presence of CIPN (Postma et al., 2005, Eur J Cancer 41: 1135-1139), was completed in all subjects. Consent was given to obtain two skin punch biopsies of approximately 4 mm diameter. These were collected 10 cm proximal to the lateral malleolus on the distal leg as described previously (Engelstad et al., 2012, Neurology 79: 2187-2193). The biopsies were carried out under anesthesia following local injection of 2% lidocaine with epinephrine, using a sterile technique. In addition, three healthy volunteers of similar age and same gender (female) were recruited as controls. […] Sequence reads were trimmed to remove possible adapter sequences and nucleotides with poor quality using Trimmomatic v.0.36. The trimmed reads were mapped to the Homo sapiens GRCh38 reference genome available on ENSEMBL using the STAR aligner v.2.5.2b. The STAR aligner was a splice aligner that detects splice junctions and incorporates them to help align the entire read sequences. […] Unique gene hit counts were calculated by using featureCounts from the Subread package v.1.5.2. […] Only unique reads that fell within exon regions were counted. If a strand-specific library preparation was performed, the reads were strand-specifically counted. […]

Compound: CN(C)CCNC(=O)NC[C@H]1CC[C@@H]2[C@H](O1)c1cc(C(F)(F)F)ccc1N[C@H]2c1ccccc1 [EMD534085]
- Nox1 Membrane:cytoplasmic ratio (nox1): 1.7±0.1
- Nox1 Nucleus:cytoplasmic ratio (nox1): 1.36±0.08

Compound: CC(=O)O[C@H]1C(=O)[C@@]2(C)[C@H]([C@H](OC(=O)c3ccccc3)[C@]3(O)C[C@H](OC(=O)[C@H](O)[C@@H](NC(=O)c4ccccc4)c4ccccc4)C(C)=C1C3(C)C)[C@]1(OC(C)=O)CO[C@@H]1C[C@@H]2O [paclitaxel]
- KIF11 expression (skin gene expression; CIPN patients after paclitaxel vs controls): upregulated in all three patients
- NOX1 and CYBB expression (skin gene expression; CIPN patients after paclitaxel vs healthy controls): most highly upregulated genes
